{"source": "patent US7781454B2", "about": "(priority 2006, dated 2010)", "key": {"[1]": {"molecular_target": "T1, mutant HIV reverse transcriptase (Y181C mutation) (Human immunodeficiency virus type 1 group M subtype B, UniProt P04585, Y768C)", "T1 construct": "against mutant HIV reverse transcriptase; made in house", "test": "ECL assay for inhibition of mutant HIV reverse transcriptase (Y181C)", "assay_type": "biochemical", "method": "(§1) 100 μL reaction mixtures were initiated with a combination of primer-template substrate ([…]) and dNTPs (0.6 μM dNTPs, 1.25 μM BrdUTP). The heterodimeric nucleic acid substrate was generated by annealing the DNA primer pD500 (described in Shaw-Reid et al., J. Biol. Chem., 278: 2777-2780; obtained from Integrated DNA Technologies) to t500, a 500 nucleotide RNA template created by in vitro transcription (see Shaw-Reid et al., J. Biol. Chem., 278: 2777-2780). After 1 hour incubation at 37° C., reactions were quenched by 10 μL of 1 N NaOH. Microtiter plates were incubated for an additional 30 minutes at room temperature and then neutralized with 10 μL of 1 N HCl. A mixture of detection buffer containing ruthenylated anti-BrdU antibody and streptavidin coated magnetic beads were added to the plate and incubated at room temperature for 1.5 hours prior to quantification via electrochemiluminescence instrument.\n(§2) Analogous assays were conducted substituting mutant HIV strains to determine the in vitro inhibition of compounds of the present invention against mutant HIV reverse transcriptase. In one strain the reverse transcriptase has the Y181C mutation and in the other strain the reverse transcriptase has the K103N mutation. The mutations were generated with the QUIKCHANGE site-directed mutagenesis kit (Stratagene)."}, "wild type HIV-1": {"system": "wild type HIV-1", "test": "Spread assay: inhibition of acute HIV-1 infection of T-lymphoid cells (WT)", "assay_type": "cell-based", "conditions": "Human immunodeficiency virus 1, T-lymphoid; wild-type strain; 10% FBS; read-out: Spread (WT) CIC95", "method": "(§3) Assays for the inhibition of acute HIV-1 infection of T-lymphoid cells (alternatively referred to herein as the “spread assay”) were conducted in accordance with Vacca, J. P. et al., Proc. Natl. Acad. Sci. USA 1994, 91: 4096. The assays tested for inhibition of wild type HIV-1 and of HIV strains containing the Y181C or K103N mutation. […] The compounds of Examples 1 to 4 had CIC95 values of less than 10 micromolar in the assay employing the K103N mutant strain. […] Table C also reports the CIC95 values of the compounds of Examples 1-7, 9-13 and 15-29 obtained in the assays employing the Y181C mutant strain and the K103N mutant strain."}, "[2]": {"system": "HIV strain containing the Y181C mutation", "test": "Spread assay: inhibition of HIV replication (Y181C mutant strain)", "assay_type": "cell-based", "conditions": "Human immunodeficiency virus 1, read-out: Spread (Y181C) CIC95", "method": "as §3"}, "[3]": {"molecular_target": "T2, mutant HIV reverse transcriptase (K103N mutation) (Human immunodeficiency virus type 1 group M subtype B, UniProt P04585, K690N)", "T2 construct": "against mutant HIV reverse transcriptase; made in house", "test": "ECL assay for inhibition of mutant HIV reverse transcriptase (K103N)", "assay_type": "biochemical", "method": "as §1, §2"}, "[4]": {"system": "HIV strain containing the K103N mutation", "test": "Spread assay: inhibition of HIV replication (K103N mutant strain)", "assay_type": "cell-based", "conditions": "Human immunodeficiency virus 1, read-out: Spread (K103N) CIC95", "method": "as §3"}, "[5]": {"molecular_target": "HIV-1 RT enzyme (wild-type) (Human immunodeficiency virus type 1 group M subtype B, UniProt P04585)", "test": "ECL assay for inhibition of HIV reverse transcriptase (WT)", "assay_type": "biochemical", "method": "as §1"}, "[6]": {"conditions": "Y181C mutant RT, read-out: ECL Assay (Y181C) IC50"}, "[7]": {"conditions": "K103N mutant RT, read-out: ECL Assay (K103N) IC50"}}, "note": "Read-outs that look alike come from different tables or passages of the source.", "data": [{"smiles": "N#Cc1cc(Cl)cc(Oc2c(Cl)ccc3c2cnn3Cc2n[nH]c3nc(N)ccc23)c1", "note": "[Example 3, 3-{[5-Chloro-4-(3-chloro-5-cyanophenoxy)-1H-indazol-1-yl]methyl}-1H-pyrazolo[3,4-b]pyridin-6-aminium chloride]", "values": [{"measurement": "IC50", "setting": "[1]; [6]", "result": 1.9, "unit": "nM"}, {"measurement": "IC95", "setting": "wild type HIV-1", "result": 9, "unit": "nM"}, {"measurement": "IC95", "setting": "[2]", "result": 77, "unit": "nM"}, {"measurement": "IC50", "setting": "[3]; [7]", "result": 1.7, "unit": "nM"}, {"measurement": "IC95", "setting": "[4]", "result": 23, "unit": "nM"}, {"measurement": "IC50", "setting": "[5]", "result": 0.6, "unit": "nM"}]}, {"smiles": "N#Cc1cc(Cl)cc(Oc2c(Cl)ccc3c2nnn3CC(=O)Nc2ccncc2C(F)(F)F)c1", "note": "[Example 13, 2-[5-chloro-4-(3-chloro-5-cyanophenoxy)-1H-1,2,3-benzotriazol-1-yl]-N-[3-(trifluoromethyl)pyridin-4-yl]acetamide]", "values": [{"measurement": "IC50", "setting": "[1]; [6]", "result": 2.4, "unit": "nM"}, {"measurement": "IC95", "setting": "wild type HIV-1", "result": 45, "unit": "nM"}, {"measurement": "IC95", "setting": "[2]", "result": 382, "unit": "nM"}, {"measurement": "IC50", "setting": "[3]; [7]", "result": 3, "unit": "nM"}, {"measurement": "IC95", "setting": "[4]", "result": 151, "unit": "nM"}, {"measurement": "IC50", "setting": "[5]", "result": 1, "unit": "nM"}]}, {"smiles": "O=Cc1cc(Cl)cc(Oc2c(Cl)ccc3c2nnn3Cc2n[nH]c3ncccc23)c1", "note": "[Example 18, 3-chloro-5-{[5-chloro-1-(1H-pyrazolo[3,4-b]pyridin-3-ylmethyl)-1H-1,2,3-benzotriazol-4-yl]oxy}benzaldehyde]", "values": [{"measurement": "IC50", "setting": "[1]; [6]", "result": 3.7, "unit": "nM"}, {"measurement": "IC95", "setting": "wild type HIV-1", "result": 55, "unit": "nM"}, {"measurement": "IC95", "setting": "[2]", "result": 825, "unit": "nM"}, {"measurement": "IC50", "setting": "[3]; [7]", "result": 2.6, "unit": "nM"}, {"measurement": "IC95", "setting": "[4]", "result": 154, "unit": "nM"}, {"measurement": "IC50", "setting": "[5]", "result": 2.1, "unit": "nM"}]}, {"smiles": "N#Cc1cc(Cl)cc(Oc2c(Cl)ccc3c2ncn3Cc2n[nH]c3nc(N)ccc23)c1", "note": "[Example 10, 3-({1-[(6-amino-1H-pyrazolo[3,4-b]pyridin-3-yl)methyl]-5-chloro-1H-benzimidazol-4-yl}oxy)-5-chlorobenzonitrile bis(trifluoroacetate)]", "values": [{"measurement": "IC50", "setting": "[1]", "result": 13, "unit": "nM"}, {"measurement": "IC95", "setting": "wild type HIV-1", "result": 21, "unit": "nM"}, {"measurement": "IC95", "setting": "[2]", "result": 468, "unit": "nM"}, {"measurement": "IC50", "setting": "[3]", "result": 13, "unit": "nM"}, {"measurement": "IC95", "setting": "[4]", "result": 85, "unit": "nM"}, {"measurement": "IC50", "setting": "[5]", "result": 1.5, "unit": "nM"}]}, {"smiles": "N#Cc1cc(Cl)cc(Oc2c(Cl)ccc3c2nnn3Cc2n[nH]c3ncccc23)c1Cl", "note": "[Example 19, 2,5-dichloro-3-{[5-chloro-1-(1H-pyrazolo[3,4-b]pyridin-3-ylmethyl)-1H-1,2,3-benzotriazol-4-yl]oxy}benzonitrile]", "values": [{"measurement": "IC50", "setting": "[1]; [6]", "result": 0.77, "unit": "nM"}, {"measurement": "IC95", "setting": "wild type HIV-1", "result": 7, "unit": "nM"}, {"measurement": "IC95", "setting": "[2]", "result": 27, "unit": "nM"}, {"measurement": "IC50", "setting": "[3]; [7]", "result": 0.93, "unit": "nM"}, {"measurement": "IC95", "setting": "[4]", "result": 15, "unit": "nM"}, {"measurement": "IC50", "setting": "[5]", "result": 0.57, "unit": "nM"}]}, {"smiles": "N#Cc1cc(Cl)cc(Oc2c(Cl)ccc3c2nnn3Cc2n[nH]c3ncccc23)c1", "note": "[Example 4, 3-chloro-5-{[5-chloro-1-(1H-pyrazolo[3,4-b]pyridin-3-ylmethyl)-1H-1,2,3-benzotriazol-4-yl]oxy}benzonitrile]", "values": [{"measurement": "IC50", "setting": "[1]; [6]", "result": 0.44, "unit": "nM"}, {"measurement": "IC95", "setting": "wild type HIV-1", "result": 4, "unit": "nM"}, {"measurement": "IC95", "setting": "[2]", "result": 24, "unit": "nM"}, {"measurement": "IC50", "setting": "[3]; [7]", "result": 0.41, "unit": "nM"}, {"measurement": "IC95", "setting": "[4]", "result": 5, "unit": "nM"}, {"measurement": "IC50", "setting": "[5]", "result": 0.24, "unit": "nM"}]}]}
